Assay results reported in US20250230193A1, “CYCLIC COMPOUND HAVING SELECTIVE KRAS INHIBITORY EFFECT ON HRAS AND NRAS” (CHUGAI SEIYAKU KABUSHIKI KAISHA, priority 2022, published 2025).
Where a SMILES comes first, the peptide text is derived from it. Bridges are numbered along the chain shown (N, C = ends). [ ]: non-standard residue; d: D form. The star is where a group is joined. hPhe(3-Cl-4-CF3) = N[C@@H](CCc1ccc(C(F)(F)F)c(Cl)c1)C(=O)O; NPrPhe(4-CF3) = CCCN[C@@H](Cc1ccc(C(F)(F)F)cc1)C(=O)O; Morpholine(3S-CO) = O=C(O)[C@@H]1COCCN1; Pip(4,4-F2) = O=C(O)[C@@H]1CC(F)(F)CCN1; NMeGly(cPent) = CN[C@H](C(=O)O)C1CCCC1; Pro(4,4-F2) = O=C(O)[C@@H]1CC(F)(F)CN1; Hyp = O=C(O)[C@@H]1C[C@@H](O)CN1; NMeD = CN[C@@H](CC(=O)O)C(=O)O; NMeL = CN[C@@H](CC(C)C)C(=O)O; Pip = O=C(O)[C@@H]1CCCCN1; Morpholide = C1CN(*)CCO1; Ac5c = NC1(C(=O)O)CCCC1; Aze = O=C(O)[C@@H]1CCN1; Ac4c = NC1(C(=O)O)CCC1; NPrGly = CCCNCC(=O)O; Sar = CNCC(=O)O

Assays:
[1] = molecular target: GDP-bound HRAS wild-type protein (Homo sapiens, UniProt P01112); experiment: Binding to HRAS by surface plasmon resonance (SPR), Single Cycle Kinetics; settings: KD ratio HRAS/KRAS, SPR
[2] = molecular target: GDP-bound NRAS wild-type protein (Homo sapiens, UniProt P01111); experiment: Binding to NRAS by surface plasmon resonance (SPR), Single Cycle Kinetics; settings: KD ratio NRAS/KRAS, SPR
Sequence of GDP-bound NRAS wild-type protein (P01111 whole entry): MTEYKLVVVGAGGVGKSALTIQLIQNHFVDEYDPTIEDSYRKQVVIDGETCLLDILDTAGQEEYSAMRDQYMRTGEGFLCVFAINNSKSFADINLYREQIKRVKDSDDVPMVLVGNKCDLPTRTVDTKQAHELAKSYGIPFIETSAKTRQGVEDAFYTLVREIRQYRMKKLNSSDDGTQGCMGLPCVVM

Sequence of GDP-bound HRAS wild-type protein (P01112 whole entry): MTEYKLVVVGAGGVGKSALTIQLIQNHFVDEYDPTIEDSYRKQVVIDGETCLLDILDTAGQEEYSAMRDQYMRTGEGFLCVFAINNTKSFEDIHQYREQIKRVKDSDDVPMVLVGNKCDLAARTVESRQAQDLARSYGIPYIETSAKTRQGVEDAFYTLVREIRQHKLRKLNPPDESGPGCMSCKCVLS

| Structure (SMILES) | HRAS/KRAS (ratio of KD for GDP-bound HRAS wild-type to KD for KRAS) [1] | NRAS/KRAS (ratio of KD for GDP-bound NRAS wild-type to KD for KRAS) [2] |
| --- | --- | --- |
| CCCN1C(=O)CN(C)C(=O)[C@@H]2CCN2C(=O)[C@H]([C@@H](C)CC)NC(=O)[C@H](CC(C)C)N(C)C(=O)C[C@@H](C(=O)N2CCOCC2)N(C)C(=O)[C@H](C2CCCC2)N(C)C(=O)C2(CCCC2)NC(=O)[C@@H]2C[C@@H](OCC)CN2C(=O)[C@H](CCc2ccc(C(F)(F)F)c(Cl)c2)NC(=O)CN(C)C(=O)[C@@H]1Cc1ccc(C(F)(F)F)cc1 [PP0310] ([NMeL]I[Aze][Sar][NPrPhe(4-CF3)][Sar][hPhe(3-Cl-4-CF3)][Hyp](Et)[Ac5c][NMeGly(cPent)][NMeD]-Morpholide; lactam N-11) | C (A compound having a KD ratio of 0.1 or more and less than 3 is denoted as C) | B (a compound having 3 or more and less than 10 is denoted as B) |
| CCCN1C(=O)CN(C)C(=O)[C@@H]2CCN2C(=O)[C@H]([C@@H](C)CC)NC(=O)[C@H](CC(C)C)N(C)C(=O)C[C@@H](C(=O)N2CCOCC2)N(C)C(=O)[C@H](C2CCCC2)N(C)C(=O)C2(CCCC2)NC(=O)[C@@H]2CCCCN2C(=O)[C@H](CCc2ccc(C(F)(F)F)c(Cl)c2)NC(=O)CN(C)C(=O)[C@@H]1Cc1ccc(C(F)(F)F)cc1 [PP0311] ([NMeL]I[Aze][Sar][NPrPhe(4-CF3)][Sar][hPhe(3-Cl-4-CF3)][Pip][Ac5c][NMeGly(cPent)][NMeD]-Morpholide; lactam N-11) | B (a compound having 3 or more and less than 10 is denoted as B) | B (a compound having 3 or more and less than 10 is denoted as B) |
| CCCN1C(=O)CN(C)C(=O)[C@@H]2CCN2C(=O)[C@H]([C@@H](C)CC)NC(=O)[C@H](CC(C)C)N(C)C(=O)C[C@@H](C(=O)N2CCOCC2)N(C)C(=O)[C@H](C2CCCC2)N(C)C(=O)C2(CCCC2)NC(=O)[C@@H]2CC(F)(F)CCN2C(=O)[C@H](CCc2ccc(C(F)(F)F)c(Cl)c2)NC(=O)CN(C)C(=O)[C@@H]1Cc1ccc(C(F)(F)F)cc1 [PP0312] ([NMeL]I[Aze][Sar][NPrPhe(4-CF3)][Sar][hPhe(3-Cl-4-CF3)][Pip(4,4-F2)][Ac5c][NMeGly(cPent)][NMeD]-Morpholide; lactam N-11) | B (a compound having 3 or more and less than 10 is denoted as B) | B (a compound having 3 or more and less than 10 is denoted as B) |
| CCCN1C(=O)CN(C)C(=O)[C@@H]2CCN2C(=O)[C@H]([C@@H](C)CC)NC(=O)[C@H](CC(C)C)N(C)C(=O)C[C@@H](C(=O)N2CCOCC2)N(C)C(=O)[C@H](C2CCCC2)N(C)C(=O)C2(CCCC2)NC(=O)[C@@H]2COCCN2C(=O)[C@H](CCc2ccc(C(F)(F)F)c(Cl)c2)NC(=O)CN(C)C(=O)[C@@H]1Cc1ccc(C(F)(F)F)cc1 [PP0313] ([NMeL]I[Aze][Sar][NPrPhe(4-CF3)][Sar][hPhe(3-Cl-4-CF3)][Morpholine(3S-CO)][Ac5c][NMeGly(cPent)][NMeD]-Morpholide; lactam N-11) | C (A compound having a KD ratio of 0.1 or more and less than 3 is denoted as C) | B (a compound having 3 or more and less than 10 is denoted as B) |
| CCCN1C(=O)CN(C)C(=O)[C@@H]2CCN2C(=O)[C@H]([C@@H](C)CC)NC(=O)[C@H](CC(C)C)N(C)C(=O)C[C@@H](C(=O)N2CCOCC2)N(C)C(=O)[C@H](C2CCCC2)N(C)C(=O)C2(CCCC2)NC(=O)CN(C)C(=O)[C@H](CCc2ccc(C(F)(F)F)c(Cl)c2)NC(=O)CN(C)C(=O)[C@@H]1Cc1ccc(C(F)(F)F)cc1 [PP0314] ([NMeL]I[Aze][Sar][NPrPhe(4-CF3)][Sar][hPhe(3-Cl-4-CF3)][Sar][Ac5c][NMeGly(cPent)][NMeD]-Morpholide; lactam N-11) | C (A compound having a KD ratio of 0.1 or more and less than 3 is denoted as C) | B (a compound having 3 or more and less than 10 is denoted as B) |
| CCCN1CC(=O)NC2(CCCC2)C(=O)N(C)[C@@H](C2CCCC2)C(=O)N(C)[C@H](C(=O)N2CCOCC2)CC(=O)N(C)[C@@H](CC(C)C)C(=O)N[C@@H]([C@@H](C)CC)C(=O)N2CC[C@H]2C(=O)N(C)CC(=O)N(CCC)[C@@H](Cc2ccc(C(F)(F)F)cc2)C(=O)N(C)CC(=O)N[C@@H](CCc2ccc(C(F)(F)F)c(Cl)c2)C1=O [PP0315] ([NMeL]I[Aze][Sar][NPrPhe(4-CF3)][Sar][hPhe(3-Cl-4-CF3)][NPrGly][Ac5c][NMeGly(cPent)][NMeD]-Morpholide; lactam N-11) | B (a compound having 3 or more and less than 10 is denoted as B) | B (a compound having 3 or more and less than 10 is denoted as B) |
| CC[C@H](C)[C@@H]1NC(=O)[C@H](CC(C)C)N(C)C(=O)C[C@@H](C(=O)N2CCOCC2)N(C)C(=O)[C@H](C2CCCC2)N(C)C(=O)C2(CCCC2)NC(=O)[C@@H]2CCCN2C(=O)[C@H](CCc2ccc(C(F)(F)F)c(Cl)c2)NC(=O)CN(C)C(=O)[C@H](Cc2ccc(C)cc2)N2CCCC[C@@H](C2=O)N(C)C(=O)CN(C)C1=O [PP0316] | B (a compound having 3 or more and less than 10 is denoted as B) | C (A compound having a KD ratio of 0.1 or more and less than 3 is denoted as C) |
| CC[C@H](C)[C@@H]1NC(=O)[C@H](CC(C)C)N(C)C(=O)C[C@@H](C(=O)N2CCOCC2)N(C)C(=O)[C@H](C2CCCC2)N(C)C(=O)C2(CCCC2)NC(=O)[C@@H]2CCCN2C(=O)[C@H](CCc2ccc(C(F)(F)F)c(Cl)c2)NC(=O)CN(C)C(=O)[C@H](Cc2ccc(C)cc2)N2CCCCC[C@@H](C2=O)N(C)C(=O)CN(C)C1=O [PP0317] | B (a compound having 3 or more and less than 10 is denoted as B) | B (a compound having 3 or more and less than 10 is denoted as B) |
| CC[C@H](C)[C@@H]1NC(=O)[C@H](CC(C)C)N(C)C(=O)C[C@@H](C(=O)N2CCOCC2)N(C)C(=O)[C@H](C2CCCC2)N(C)C(=O)C2(CCCC2)NC(=O)[C@@H]2CCCN2C(=O)[C@H](CCc2ccc(C(F)(F)F)c(Cl)c2)NC(=O)CN(C)C(=O)[C@H](Cc2ccc(C(F)(F)F)cc2)N2CCCC[C@@H](C2=O)N(C)C(=O)CN(C)C1=O [PP0318] | B (a compound having 3 or more and less than 10 is denoted as B) | B (a compound having 3 or more and less than 10 is denoted as B) |
| CCCN1C(=O)CN(C)C(=O)CN(C)C(=O)[C@H]([C@@H](C)CC)NC(=O)[C@H](CC(C)C)N(C)C(=O)C[C@@H](C(=O)N2CCOCC2)NC(=O)[C@H](C2CCCC2)N(C)C(=O)C2(CCC2)NC(=O)[C@@H]2CCCN2C(=O)[C@H](CCc2ccc(C(F)(F)F)c(Cl)c2)NC(=O)CN(C)C(=O)[C@@H]1Cc1ccc(C(F)(F)F)cc1 [PP0320] ([NMeL]I[Sar][Sar][NPrPhe(4-CF3)][Sar][hPhe(3-Cl-4-CF3)]P[Ac4c][NMeGly(cPent)]D-Morpholide; lactam N-11) | B (a compound having 3 or more and less than 10 is denoted as B) | B (a compound having 3 or more and less than 10 is denoted as B) |
| CCCN1C(=O)CN(C)C(=O)CN(C)C(=O)[C@H]([C@@H](C)CC)NC(=O)[C@H](CC(C)C)N(C)C(=O)C[C@@H](C(=O)N2CCOCC2)NC(=O)[C@H](C2CCCC2)N(C)C(=O)C2(CCCC2)NC(=O)[C@@H]2CC(F)(F)CN2C(=O)[C@H](CCc2ccc(C(F)(F)F)c(Cl)c2)NC(=O)CN(C)C(=O)[C@@H]1Cc1ccc(C(F)(F)F)cc1 [PP0321] ([NMeL]I[Sar][Sar][NPrPhe(4-CF3)][Sar][hPhe(3-Cl-4-CF3)][Pro(4,4-F2)][Ac5c][NMeGly(cPent)]D-Morpholide; lactam N-11) | B (a compound having 3 or more and less than 10 is denoted as B) | B (a compound having 3 or more and less than 10 is denoted as B) |
| CCCN1C(=O)CN(C)C(=O)CN(C)C(=O)[C@H]([C@@H](C)CC)NC(=O)[C@H](CC(C)C)N(C)C(=O)C[C@@H](C(=O)N2CCOCC2)NC(=O)[C@H](C2CCCC2)N(C)C(=O)C2(CCC2)NC(=O)[C@@H]2CC(F)(F)CN2C(=O)[C@H](CCc2ccc(C(F)(F)F)c(Cl)c2)NC(=O)CN(C)C(=O)[C@@H]1Cc1ccc(C(F)(F)F)cc1 [PP0322] ([NMeL]I[Sar][Sar][NPrPhe(4-CF3)][Sar][hPhe(3-Cl-4-CF3)][Pro(4,4-F2)][Ac4c][NMeGly(cPent)]D-Morpholide; lactam N-11) | C (A compound having a KD ratio of 0.1 or more and less than 3 is denoted as C) | B (a compound having 3 or more and less than 10 is denoted as B) |
| CCCN1C(=O)CN(C)C(=O)CN(C)C(=O)[C@H]([C@@H](C)CC)NC(=O)[C@H](CC(C)C)N(C)C(=O)C[C@@H](C(=O)N2CCOCC2)NC(=O)[C@H](C2CCCC2)N(C)C(=O)C2(CCCC2)NC(=O)[C@@H]2C[C@@H](OCC)CN2C(=O)[C@H](CCc2ccc(C(F)(F)F)c(Cl)c2)NC(=O)CN(C)C(=O)[C@@H]1Cc1ccc(C(F)(F)F)cc1 [PP0323] ([NMeL]I[Sar][Sar][NPrPhe(4-CF3)][Sar][hPhe(3-Cl-4-CF3)][Hyp](Et)[Ac5c][NMeGly(cPent)]D-Morpholide; lactam N-11) | B (a compound having 3 or more and less than 10 is denoted as B) | B (a compound having 3 or more and less than 10 is denoted as B) |
